Among the data in PubChem BioAssay (NCI) are TGI values, retold here.

Some test systems named below: DU-145 prostate; OVCAR-5 ovarian; OVCAR-8 ovarian; RPMI-8226 leukemia; SF-268 CNS; SK-MEL-5 melanoma; SK-OV-3 ovarian; SW-620 colon; T-47D breast; UACC-257 melanoma.
Assay in all cases: NCI anticancer screen, dose series, 48 h

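Cells were grown in 96-well plates and exposed to each compound for 48 hours at five concentrations; endpoints were interpolated linearly between bracketing concentrations, or set to the highest concentration if not reached. TGI marks complete inhibition of growth.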

Turning to `c1ccc2c(c1)CCc1c-2n(CCN2CCOCC2)c2ccccc12`, the TGI is greater than 100 µM with DU-145 prostate; greater than 100 µM in the assay on OVCAR-5 ovarian; greater than 100 µM with OVCAR-8 ovarian; greater than 100 µM with RPMI-8226 leukemia; greater than 100 µM in the assay with SF-268 CNS; 51.2 µM with SK-MEL-5 melanoma. Besides, the TGI is 82.9 µM with SK-OV-3 ovarian, greater than 100 µM in the assay with SW-620 colon, greater than 100 µM with T-47D breast and greater than 100 µM in the assay on UACC-257 melanoma.

For the compound `CC1(C)CC(=O)c2c(nc3ccc4ccccc4c3c2-c2ccc(NC(=O)CCCCCCCCC(=O)Nc3ccc(-c4c5c(nc6ccc7ccccc7c46)CC(C)(C)CC5=O)cc3)cc2)C1`, the TGI in the assay on DU-145 prostate, in the assay with OVCAR-5 ovarian, in the assay on OVCAR-8 ovarian, with RPMI-8226 leukemia, in the assay on SF-268 CNS and in the assay on SK-MEL-5 melanoma was greater than 100 µM each time. Besides, the TGI with SK-OV-3 ovarian, in the assay with SW-620 colon, in the assay on T-47D breast and in the assay with UACC-257 melanoma was greater than 100 µM each time.

For `O=C(Nc1nc2ccccc2s1)c1cc([N+](=O)[O-])ccc1Cl`, the TGI in the assay on DU-145 prostate was 86.3 µM; in the assay on OVCAR-5 ovarian it was greater than 100 µM; in the assay with OVCAR-8 ovarian, greater than 45.4 µM; with RPMI-8226 leukemia, greater than 100 µM; with SF-268 CNS, 62 µM; in the assay with SK-MEL-5 melanoma, 25.1 µM. Besides, the TGI in the assay on SK-OV-3 ovarian was greater than 100 µM; with SW-620 colon it was greater than 51.4 µM; in the assay with T-47D breast it was greater than 100 µM; with UACC-257 melanoma, greater than 100 µM.

As for `O=C(O)c1nc(-c2ccccc2)[nH]c1C(=O)O`, the TGI in the assay on DU-145 prostate worked out at 28.2 µM; with OVCAR-5 ovarian, 31.7 µM; in the assay with OVCAR-8 ovarian, 29.7 µM; with RPMI-8226 leukemia it was 4.14 µM; with SF-268 CNS it was 34.8 µM; in the assay with SK-MEL-5 melanoma it was 28.6 µM. Further, the TGI is 32.4 µM in the assay on SK-OV-3 ovarian, 6.78 µM in the assay on SW-620 colon, 33.1 µM with T-47D breast and 30.3 µM in the assay on UACC-257 melanoma.

`Nc1ccccc1CC(O)C(=O)O` (stereo not given): the TGI in the assay on DU-145 prostate, in the assay with OVCAR-5 ovarian, with OVCAR-8 ovarian, in the assay on RPMI-8226 leukemia, in the assay on SF-268 CNS and with SK-MEL-5 melanoma was greater than 100 µM each time. In addition, the TGI in the assay with SK-OV-3 ovarian, in the assay on SW-620 colon, with T-47D breast and with UACC-257 melanoma was greater than 100 µM throughout.

`Nc1ncnc2c1nnn2C1CCC(CP(=O)(O)O)C1` (stereo not given): the TGI in the assay on DU-145 prostate, in the assay on OVCAR-5 ovarian, with OVCAR-8 ovarian, in the assay on RPMI-8226 leukemia, in the assay with SF-268 CNS and with SK-MEL-5 melanoma was greater than 100 µM each time. Besides, the TGI in the assay on SK-OV-3 ovarian, in the assay on SW-620 colon, in the assay on T-47D breast and with UACC-257 melanoma was greater than 100 µM throughout.

Consider `COC(=O)c1c(O)ccc2c1c1c(n2Cc2cccc(C)c2)C(=O)c2ccccc2C1=O`, for which the TGI was 32.6 µM in the assay with DU-145 prostate; 52.7 µM in the assay on OVCAR-5 ovarian; 21.9 µM in the assay on OVCAR-8 ovarian; 16.9 µM with RPMI-8226 leukemia; 25.9 µM in the assay on SF-268 CNS; 26.3 µM in the assay on SK-MEL-5 melanoma. Further, the TGI was 23.8 µM in the assay on SK-OV-3 ovarian, 32.4 µM in the assay on SW-620 colon, 12.4 µM with T-47D breast and 31.2 µM with UACC-257 melanoma.

With `COc1ccc(-n2c(=O)n(C)c(=O)n2-c2ccc(OC)cc2)cc1`, the TGI in the assay on DU-145 prostate, in the assay with OVCAR-5 ovarian, with OVCAR-8 ovarian, in the assay with RPMI-8226 leukemia, in the assay with SF-268 CNS and in the assay with SK-MEL-5 melanoma was greater than 100 µM throughout. Moreover, the TGI in the assay on SK-OV-3 ovarian, with SW-620 colon, in the assay on T-47D breast and with UACC-257 melanoma was greater than 100 µM each time.

`CC[N+]1(C)CCC(O)(c2ccc(Cl)c(Cl)c2)C(C(=O)c2ccc(Cl)c(Cl)c2)C1` (stereo not given): the TGI in the assay on DU-145 prostate, in the assay with OVCAR-5 ovarian, in the assay on OVCAR-8 ovarian, in the assay on RPMI-8226 leukemia, with SF-268 CNS and in the assay on SK-MEL-5 melanoma was greater than 10 µM throughout. Besides, the TGI in the assay on SK-OV-3 ovarian, in the assay with SW-620 colon, with T-47D breast and in the assay on UACC-257 melanoma was greater than 10 µM in each case.

With `C#CCSC(C=C=C)P(=O)(OC(C)C)OC(C)C` (stereo not given), the TGI in the assay on DU-145 prostate, in the assay on OVCAR-5 ovarian, in the assay with OVCAR-8 ovarian, with RPMI-8226 leukemia, in the assay on SF-268 CNS and in the assay with SK-MEL-5 melanoma was greater than 100 µM each time. In addition, the TGI in the assay with SK-OV-3 ovarian, in the assay on SW-620 colon, in the assay with T-47D breast and in the assay on UACC-257 melanoma was greater than 100 µM each time.

With `CN(C)c1nc2oc(-c3ccccc3)c(-c3ccccc3)c2c2nnnn12`, the TGI in the assay with DU-145 prostate, in the assay on OVCAR-5 ovarian, in the assay on OVCAR-8 ovarian, in the assay on RPMI-8226 leukemia, with SF-268 CNS and with SK-MEL-5 melanoma was greater than 100 µM in each case. The TGI in the assay on SK-OV-3 ovarian, with SW-620 colon, in the assay with T-47D breast and in the assay on UACC-257 melanoma was greater than 100 µM in each case.

Regarding `O=C(OCCN=c1c2ccccc2ccc2ccccc12)c1ccc([N+](=O)[O-])cc1`, the TGI with DU-145 prostate, with OVCAR-5 ovarian, in the assay with OVCAR-8 ovarian, in the assay with RPMI-8226 leukemia, in the assay on SF-268 CNS and in the assay with SK-MEL-5 melanoma was greater than 100 µM throughout. Besides, the TGI in the assay on SK-OV-3 ovarian, in the assay on SW-620 colon, with T-47D breast and in the assay with UACC-257 melanoma was greater than 100 µM throughout.

Regarding `O=c1ccn(CC2(CO)CC(Cc3ccccc3)C2)c(=O)[nH]1` (stereo not given), the TGI in the assay on DU-145 prostate, in the assay on OVCAR-5 ovarian, with OVCAR-8 ovarian, with RPMI-8226 leukemia, in the assay with SF-268 CNS and with SK-MEL-5 melanoma was greater than 100 µM each time. Moreover, the TGI with SK-OV-3 ovarian, with SW-620 colon, in the assay on T-47D breast and in the assay with UACC-257 melanoma was greater than 100 µM each time.

Regarding `CC1CC/C(=C\c2ccc(Cl)cc2)C2OC(N)=C(C#N)C(c3ccc(Cl)cc3)=C12` (stereo not given), the TGI in the assay on DU-145 prostate came to 34.5 µM; in the assay with OVCAR-5 ovarian, 37.5 µM; in the assay with OVCAR-8 ovarian, 27.4 µM; in the assay with RPMI-8226 leukemia, 29.2 µM; in the assay on SF-268 CNS, 31.2 µM; in the assay with SK-MEL-5 melanoma, 32.1 µM. Further, the TGI in the assay with SK-OV-3 ovarian stood at 40 µM; with SW-620 colon it was 89 µM; in the assay on T-47D breast, 17.8 µM; in the assay with UACC-257 melanoma, 53.4 µM.
